The values below are quoted from earlier work in patent US20160220569A1, “CDK4/6 Inhibitor Dosage Formulations For The Protection Of Hematopoietic Stem And Progenitor Cells During Chemotherapy” (G1 Therapeutics, Inc., priority 2015, published 2016).

Like-named read-outs stand apart in the source and are kept apart here.

The conditions of data set [1]: cited from earlier work.
For data set [2] the following is noted: cited from earlier work. The source holds these as a separate data set.
The mark [3] stands for this setting: Grade 3/4 neutropenia and leukopenia with palbociclib.

Consider `CCN1CCN(Cc2ccc(Nc3ncc(F)c(-c4cc(F)c5nc(C)n(C(C)C)c5c4)n3)nc2)CC1` [Abemaciclib], for which, in data set [1] (abemaciclib, gastrointestinal toxicity), the “diarrhea in clinical trials” value was “greater than 50%”.

A word on the Cmax: it is the highest concentration seen after dosing. The Tmax is the time from dosing to the highest level. By CL/F is commonly meant the apparent clearance, not corrected for the fraction that reaches the circulation. As for `CC(=O)c1c(C)c2cnc(Nc3ccc(N4CCNCC4)cn3)nc2n(C2CCCC2)c1=O` [palbociclib, 6-acetyl-8-cyclopentyl-5-methyl-2-(5-piperazin-1-yl-pyridin-2-ylammino)-8H-pyrido-[2,3-d]-pyrimidin-7-one], the “patients requiring a dose interruption” value in data set [1] (setting [3]) is on record as 71%. Also, the “patients requiring a dose reduction” value in data set [1] (setting [3]) was 35%. Also, the “AUC (0-10)” value in data set [2] (100 mg QD, Day 1) is 333 ng·h/mL; in data set [2] (100 mg QD, Day 8), 433 ng·h/mL; in data set [2] (150 mg QD, Day 1), 622 ng·h/mL; in data set [2] (150 mg QD, Day 8), 1599 ng·h/mL; in data set [2] (200 mg QD, Day 1), 525 ng·h/mL; in data set [2] (200 mg QD, Day 8) it was 1395 ng·h/mL. The “AUC (0-10)” value was 718 ng·h/mL in data set [2] (225 mg QD, Day 1) and 1491 ng·h/mL in data set [2] (225 mg QD, Day 8). The Cmax was 44 ng/mL in data set [2] (100 mg QD, Day 1); 58 ng/mL in data set [2] (100 mg QD, Day 8); 78 ng/mL in data set [2] (150 mg QD, Day 1); 194 ng/mL in data set [2] (150 mg QD, Day 8); 78 ng/mL in data set [2] (150 mg oral); 81 ng/mL in data set [2] (200 mg QD, Day 1). Further, the Cmax in data set [2] (200 mg QD, Day 8) is 174 ng/mL; in data set [2] (225 mg QD, Day 1) it was 104 ng/mL; in data set [2] (225 mg QD, Day 8), 186 ng/mL. The Tmax is recorded as 4 h in data set [2] (100 mg QD, Day 1); 4 h in data set [2] (100 mg QD, Day 8); 6 h in data set [2] (150 mg QD, Day 1); 7 h in data set [2] (150 mg QD, Day 8); 5.7 h in data set [2] (200 mg QD, Day 1); 4 h in data set [2] (200 mg QD, Day 8). Moreover, the Tmax was 4 h in data set [2] (225 mg QD, Day 1) and 4.5 h in data set [2] (225 mg QD, Day 8). In data set [2] (150 mg oral), the “AUC(0-inf)” value is recorded as 2002 n*hr/ml. In addition, the apparent clearance (CL/F) in data set [2] (150 mg oral) was 88.5 L/h. In addition, the T1/2 in data set [2] (150 mg oral) was 26.7 h; in data set [2] (palbociclib, literature), “roughly 26.7 hours”.

As for `CN(C)C(=O)c1cc2cnc(Nc3ccc(N4CCNCC4)cn3)nc2n1C1CCCC1` [ribociclib], the associated adverse effect result in data set [1] (ribociclib administration) is reported as “QT prolongation”.
